Here are results for 2 molecules from US6949521B2, “Therapeutic azide compounds” (priority 1995, dated 2005).

Series [1] can be described thus: in vivo. As to conditions: female, NIH-Swiss, mouse, in vivo; for half-life: t½; for AUC: AUC0-τ. From the text:
Animal studies. […] Animal studies were approved by the University of Georgia Animal Care and Use Committee and conducted in accordance with guidelines established by the Animal Welfare Act and the National Institutes of Health Guide for the Care and Use of Laboratory Animals. […] Animals were acclimatized to this environment for one week prior to the experiments.
At selected time intervals, mice (three animals per each time point) were anesthetized with diethyl ether and sacrificed by exsanguination via left ventricular heart puncture. Serum was harvested from blood collected. The brain was excised, rinsed with normal saline, blotted dry and weighed.
Analytical Methodology. […] The brain or liver tissue were homogenized in a 1:1 (g:mL) ratio with ice cold isotonic 0.05 M phosphate buffer, pH 7.4. […] Acetonitrile (600 μL) containing 0.1% acetic acid was added while vortexing to precipitate proteins. The tubes were centrifuged at 3,000 rpm for five minutes and the supernatant was transferred to a clean tube. Supernatant was evaporated to dryness under a stream of nitrogen gas at room temperature. The residual film was reconstituted in 110 μL of mobile phase and 50 μL was injected onto the HPLC.
Chromatographic separations were performed using a Hypersil ODS column 150×4.5 mm, 5 μm particle size (Alltech Associates, Deerfield, Ill.) preceded by a guard column packed with 30-40 μm pellicular Perisorb RP-18. Mobile phase flow rate was 2 mL/min. For the analysis of FAAddP and 2′-F-ara-ddA, the mobile phase consisted of 7% (v/v) acetonitrile in 80 mM sodium acetate, pH 5.0. […] Eluants were monitored at a UV wavelength of 260 nm.
Nucleoside standards ranging from 0.04 μg/mL to 100 μg/mL, prepared in blank PBS, serum, brain homogenate and liver homogenate were treated the same as unknown samples. Samples with nucleoside concentrations greater than 100 μg/mL were diluted with the appropriate blank matrix.
Data analysis in vivo studies. Nucleoside concentration as a function of time data were analyzed by a non-compartmental technique. […] Relative brain exposure (re) was calculated from AUCbrain/AUCserum.

For series [2] the following is noted: mice; after oral and intravenous prodrug 2′-F-ara-ddP administration; cited from earlier work.
For a further series, the system named is HIV-1. As to conditions: relative to parent compounds ddA, ddI; cited from earlier work.
Series [3] can be described thus: In vitro metabolism study of 6-AAP and ara-A in mouse liver homogenate, serum and brain homogenate.
Description: All the solvents were of HPLC grade. Chromatography was performed on an Altech Hypersil ODS C18 (5 μm particle size, 4.5×150 mm, Altech Associates, Deerfield, Ill.).
In vitro metabolism study. Female NIH Swiss mice (Harland Sprague-Dawley, Indianapolis, Ind.) were sacrificed and serum, liver and brain tissues were collected before each experiment. Serum was collected from several animals. The brain and liver were washed in normal saline at 4° C., wiped and then weighed. […] Samples and blanks of volume 400 μL were collected at 0, 5, 15, and 30 minutes and at 1, 2, 3, 4 and 5 hours.
To measure the analyte concentrations in serum, liver or brain homogenate, 400 μL of sample was mixed with 50 μL of internal standard (AzdU, 5 μg/mL) and 0.7 mL of acetonitrile. After centrifugation, the supernatant was decanted to another tube and treated with anhydrous Na2SO4, then vortexed for one minute and centrifuged again. The organic layer was separated and evaporated under nitrogen stream at room temperature. The residue was reconstituted in mobile phase A and filtered through MPS-I micropartition system (3KD membranes (Amicon Inc., Beverly, Mass.) by centrifugation for 50 minutes at 2000 rpm to further clean-up the samples. 100 μL of filtrate was injected for analysis.
The conditions of series [4]: in vivo; cited from earlier work.
The conditions of series [5]: mouse, in vivo, iv, 100 mg/kg.
Description: (§1) Analysis. […] All the solvents were of HPLC grade. Chromatography was performed on an Altech Hypersil ODS C18 (5 μm particle size, 4.5×150 mm, Altech Associates, Deerfield, Ill.).
(§2) In vivo pharmacokinetics: Female NIH Swiss mice (Harland Sprague-Dawley, Indianapolis, Ind.) weighing 24-28 g were used for the pharmacokinetic experiments.
(§3) At least three animals each were sacrificed at 0.08, 0.025, 0.5, 0.75, 1.0, 2.0, 3.0, 4.0, 5.0 and 6.0 hours after drug administration. Blood (serum) from the heart and whole-brain samples were collected. Serum samples were treated immediately and brain samples were frozen at −20° C. until analysis. To determine the nucleoside concentrations in the serum, a know amount of serum sample, 50 μL of the internal standard (AzdU, 5 μg/mL) and 1.0 mL of acetonitrile as a protein precipitant were added to polypropylene microcentrifuge tubes (1.7 mL). Tubes were mixed and centrifuged at 9,000 rpm for 10 minutes.
(§4) After homogenization, 1.8 mL of acetonitrile was added to tissue homogenates, samples were mixed and centrifuged at 9,000 rpm for 10 minutes. The resulting supernatant from the serum or the brain was transferred to a clean tube and dried under a stream of nitrogen gas at 22° C. The residue was reconstituted in 220 μL of mobile phase D and after centrifugation at 12,000 rpm for 40 min, 100-150 μL was injected for the HPLC analysis. […] After each assay, the column was equilibrated to initial conditions for 7 minutes.
(§5) The area under concentration (AUC) versus time profiles from time zero to the last measured concentration were determined by the linear trapezoidal rule and the AUC from the time of the last measured concentration to infinity was determined by dividing the last determined concentration by the least-squares elimination rate constant (λZ). […] The relative tissue exposure (re) of the compounds was calculated from AUCTissue/AUCserum.
A short description of series [6]: in vivo. To be noted: female, NIH Swiss, mouse, in vivo, iv, 100 mg/kg.
Description: as §1, §2, §3, §4, §5

The term clearance denotes the rate of elimination divided by the concentration. A high value points to a high capacity for elimination. One may read the half-life as the time needed for the level to fall by half in the phase considered. Broadly, the t½ is how long it takes for the measured level to halve. As a reminder, the AUC is concentration integrated over time. High values mean high exposure, low ones low exposure. In turn, `O=c1[nH]cnc2c1ncn2[C@@H]1O[C@H](CO)C[C@@H]1F` [2′-F-ara-ddI, 2′-fluoro-2′,3′-dideoxyinosine] had a clearance in “in vivo [1]” (iv) of 36.3 mL/min/kg. Besides, in the series “in vivo [1]” (iv, 20 mg/kg), the Kp amounted to 0.165 and the half-life was 24.6 min. Moreover, in the series “in vivo [1]” (iv, 55 mg/kg), the t½ was 57.6 min and the half-life was 40.8 min. In “in vivo [1]” (iv, 112 mg/kg), the AUC/Dose stood at 0.025 μM · h/μmol/kg, the AUC is 10.1 µM·h and the half-life was 31.2 min. In the series “in vivo [1]” (po, 55 mg/kg), this molecule had an AUC/Dose of 0.046 μM · h/μmol/kg, an AUC of 6.7 µM·h and a half-life of 175 min. For the same molecule, in series [2], the AUCbrain/AUCserum ratio result is listed as “approximately 36%”. Moreover, in the series on HIV-1, the “potency in protecting CD4+ATH8 cells from cytopathogenic effects of HIV-1” value is reported as “as potent as the parent compounds”.
The molecule `Nc1ncnc2c1ncn2[C@@H]1O[C@H](CO)[C@@H](O)[C@@H]1O` [ara-A, 9-(β-D-arabinofuranosyl)adenine, reference compound] registered a T1/2 in series [3] (6-AAP incubated in mouse liver homogenate) of 87.6 min. In addition, the T1/2 in series [3] (Ara-A incubated in mouse liver homogenate) is 2.4 min. Also, the “half-life of ara-A generated from 6-AAP alone, times greater than that of ara-A itself” value in series [3] (mouse liver homogenate) is given as 36 times. Further, the “half-life of ara-A” value in series [4] is listed as “four times longer”. The “serum level, initial (declined from)” value in series [5] (female, NIH Swiss) came to 18500 ± 3500 ng/mL. Besides, in series [5], the “presence in the brain” value is on record as “not found”. In “in vivo [6]”, the AUC came to 3950 ± 200 ng·h/mL and the concentration at 25 minutes was 330 ± 250 ng/mL.
